This note sets out measurements from patent US5021421A, “2-(1-Piperazinyl)-4-phenylcycloalkanopyridine derivatives, processes for the production thereof, and pharmaceutical composition containing the same” (Dainippon Pharmaceutical Co., Ltd., priority 1989, dated 1991).

In one data set the target is adrenaline (α1) receptor. In words: In vitro binding to adrenaline (α1) receptor, [3H] WB-4101. Set-up: species or system rats. The following applies: [3H] WB-4101, rat brain crude synaptosome fraction. How it is done:
(§1) Dopamine (D2), serotonin (S1, S2) and adrenaline (α1) receptor binding assays were carried out according to the methods of I. Creese et al. [Eur. J. Pharmacol., 46, 377 (1977), S. J. Peroutka et al. [Mol. Pharmacol. 16, 687 (1979)], J. E. Leysen et al. [Mol. Pharmacol., 21, 301 (1982)] and D. C. U'Prichard et al. [Mol. Pharmacol., 13, 454 (1977)], respectively.
(§2) Crude synaptosome fractions were prepared from some brain regions in rats for receptor sources. Radioactive ligands used were [^3 H] spiperone (D2), [^3 H] serotonin (S1), [^3 H] ketanserin (S2) and [^3 H] WB-4101 (α1). The binding assay was performed by incubating aliquots of synaptosome fraction in buffer solution (final volume: 1 ml) containing a [^3 H] labelled ligand and a test compound. The assay was terminated by rapid filtration through Whatman GF/B glass fiber filters attached to a cell-harvester (Brandel) and radioactivity on the filters was counted in a Packard Triscarb scintillation counter. Specific binding was calculated as a difference between amounts of radioactivity in the presence and absence of an unlabelled ligand [spiperone (D2), serotonin (S1), methysergide (S2) and prazosin (α1)]. The IC50 value of the test compounds (concentration causing 50% inhibition of [^3 H] ligand specific binding) was determined by probit analysis.

In a further data set the test system is mice. In words: Acute toxicity. In kind it is in vivo, mice (Std-ddy strain). The following applies: dose 500 mg/kg oral, 7 days observation. The text has this: A group of 5 male mice (Std-ddy strain, 25-30 g) was used. The test compound was orally administered to the test animal in the form of a 0.5% tragacanth solution or suspension, and for 7 days after the administration of the test compound, the lethality of animals was observed.

A further data set deals with T1, serotonin (S2) receptor (Rattus norvegicus, UniProt P14842).
T1 construct: Crude synaptosome fractions were prepared from some brain regions in rats for receptor sources; from tissue
T1 sequence (P14842 whole entry): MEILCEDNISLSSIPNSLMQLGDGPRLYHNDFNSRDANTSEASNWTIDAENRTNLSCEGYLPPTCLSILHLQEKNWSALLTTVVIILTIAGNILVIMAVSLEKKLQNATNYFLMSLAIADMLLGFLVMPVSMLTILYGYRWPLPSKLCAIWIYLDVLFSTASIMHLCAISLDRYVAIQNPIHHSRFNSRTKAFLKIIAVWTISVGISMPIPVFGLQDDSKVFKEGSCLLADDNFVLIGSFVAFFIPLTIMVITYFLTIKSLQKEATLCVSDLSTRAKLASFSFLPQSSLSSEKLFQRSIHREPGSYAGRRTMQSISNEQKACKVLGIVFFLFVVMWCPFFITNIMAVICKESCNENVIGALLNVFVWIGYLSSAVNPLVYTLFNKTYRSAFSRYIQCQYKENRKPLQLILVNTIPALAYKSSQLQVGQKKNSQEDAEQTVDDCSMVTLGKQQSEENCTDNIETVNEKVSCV
In words: In vitro binding to serotonin (S2) receptor, [3H] ketanserin. Set-up: species or system rats. The following applies: for IC50: [3H] ketanserin, rat brain crude synaptosome fraction. How it is done: as §1, §2

Data set [1] relates to apomorphine-induced vomiting. In words: Antagonistic effect on apomorphine-induced vomiting. The class given is in vivo, dogs (Beagle). The essentials:
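Beagle dogs (8–15 kg, 3–4 per group) received test compound, then 0.3 mg/kg apomorphine hydrochloride s.c. two hours later. Vomiting episodes counted over 1 h; percent inhibition calculated against a non-dosed control group.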

For another data set, the target named is T2, dopamine (D2) receptor (Rattus norvegicus, UniProt P61169).
T2 construct: Crude synaptosome fractions were prepared from some brain regions in rats for receptor sources; from tissue
T2 sequence (P61169 whole entry): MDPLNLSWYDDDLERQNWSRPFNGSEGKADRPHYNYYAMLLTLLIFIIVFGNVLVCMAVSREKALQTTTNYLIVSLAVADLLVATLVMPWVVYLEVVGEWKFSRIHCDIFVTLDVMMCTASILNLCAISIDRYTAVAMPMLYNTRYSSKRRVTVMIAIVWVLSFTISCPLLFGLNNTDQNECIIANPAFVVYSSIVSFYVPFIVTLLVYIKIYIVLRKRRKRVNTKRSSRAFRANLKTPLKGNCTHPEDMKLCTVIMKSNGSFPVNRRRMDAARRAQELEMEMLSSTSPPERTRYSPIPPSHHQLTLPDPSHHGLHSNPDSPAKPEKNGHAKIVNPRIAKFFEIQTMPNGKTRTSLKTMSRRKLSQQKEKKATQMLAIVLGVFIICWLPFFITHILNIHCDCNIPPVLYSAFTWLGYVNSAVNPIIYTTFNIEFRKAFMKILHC
In words: In vitro binding to dopamine (D2) receptor, [3H] spiperone. Also on record: species or system rats. As to the method:
as §1, §2

The test system of data set [2] is brain monoamine metabolites. In words: Increasing effect on concentration of brain monoamine metabolites. In kind it is in vivo, mice (Std-ddy strain). The following applies: Mus musculus, 2 h, non-dosed=100. The essentials: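 Male Std-ddy mice (25-30 g, n=5) decapitated 2 h after dosing; brain extracts analysed by HPLC with electrochemical detection for DOPAC, HVA, MOPEG and 5-HIAA. Values expressed as % of non-dosed controls (=100).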

The next data set concerns the target serotonin (S1) receptor. In words: In vitro binding to serotonin (S1) receptor, [3H] serotonin. Also on record: species or system rats. The following applies: rat brain crude synaptosome fraction. How it is done:
as §1, §2

Data set [3] concerns cycloheximide-induced amnesia of passive avoidance response. In words: Improving effect on cycloheximide-induced amnesia of passive avoidance response. The following applies: cycloheximide 60 mg/kg s.c., retention at 24 h. In kind it is in vivo, mice (Std-ddY strain). The text has this: Anti-amnesic effect of the test compounds was examined using mice given cycloheximide, which is a known amnesia-inducing agent.
A group of 15-20 male mice (Std-ddY strain, 27-33 g) was subjected to training and retention trials for a passive avoidance task in a step-down apparatus (30×30×50 cm) with a grid floor and a wooden platform (4×4×4 cm) in a center of the floor. In the training trial, each mouse was first placed on the platform. When the mouse stepped down on the grid floor, an electric shock (1 Hz, 0.5 sec, 60 VDC) was delivered to the feet for 15 seconds. Immediately after the training trial, cycloheximide (60 mg/kg, s.c.) and a test compound (i.p.) were administered. The retention trial was carried out 24 hours thereafter, the time from placing again each mouse placed on the platform until stepping down on the grid floor (step-down latency) was measured. The step-down latency in the retention trial was markedly shortened by treatment of cycloheximide (amnesia). The effect of test compounds was assessed by % improvement (complete improvement to the latency level of non-dosed animals=100%).

For data set [4], the system named is scopolamine-induced deficit of spontaneous alternation. In words: Improving effect on scopolamine-induced deficit of spontaneous alternation behavior (T-maze). In kind it is in vivo, mice (Std-ddY strain). The following applies: scopolamine hydrobromide 1 mg/kg i.p. The text has this:
A group of 15-25 male mice (Std-ddY strain, 22-28 g) was used for evaluating effect of the test compounds on scopolamine-induced deficit of spontaneous alternation in a T-maze, which is a known animal model of memory impairment due to hypofunction of the cholinergic nervous system. The T-maze used consists of a stem and two arms which are 25 cm long, 5 cm wide and 10 cm high. The first 10 cm of the stem and last 10 cm of each arm are divided by sliding doors into start and goal boxes.
A test compound and scopolamine hydrobromide (1 mg/kg) were intraperitoneally administered to each mouse, and after 30 minutes a test of spontaneous alternation task in the T-maze was continuously repeated for 8 trials. Commonly, naive mice alternate each (right and left) goal box in turn, but scopolamine-treated animals tend to enter the same goal box repeatedly. The effect of the test compounds was expressed as % improvement (complete improvement to the alternation level of non-dosed mice=100%).

The nature of data set [5]: Psychotropic / anti-psychotic (neuroleptic) activity, general statement. The following applies: experiments by the present inventors.
The mark [6] stands for this setting: Canis lupus familiaris, sc, apomorphine 0.3 mg/kg s.c. 2 h after compound, read-out: Inhibitory ratio (apomorphine-induced vomiting).
Where [7] appears, read: [3H] spiperone, rat brain crude synaptosome fraction, read-out: IC50 D2.
Where [8] appears, read: read-out: DOPAC concentration, % of control.
The mark [9] stands for this setting: read-out: HVA concentration, % of control.
Where [10] appears, read: read-out: 5-HIAA concentration, % of control.
Setting [11] is: read-out: MOPEG concentration, % of control.
[12] abbreviates: Canis lupus familiaris, sc, 2 h, read-out: Inhibitory ratio (apomorphine-induced vomiting).

The structures appear in SMILES notation. Like-named read-outs stand apart in the source and are kept apart here. A value given as a limit tells only on which side of the number the result lay.

As to `CCN1CCN(c2cc(-c3ccc(F)cc3)c3c(n2)CCCCCC3)CC1` [Example 1a, 2-(4-ethyl-1-piperazinyl)-4-(4-fluorophenyl)-5,6,7,8,9,10-hexahydrocycloocta[b]pyridine], the IC50 – broadly, the concentration needed to halve the response being measured – at adrenaline (α1) receptor was found to be 83 nM; at serotonin (S2) receptor it was 9.9 nM; at dopamine (D2) receptor (setting [7]), 24 nM. For the same compound, the “Number of dead animals / Number of test animals” value in the data set on mice is recorded as 0/5. The inhibition in vivo at 0.2 mg/kg in data set [1] (setting [6]) was 100%.

As to `CCN1CCN(c2cc(-c3ccc(F)cc3F)c3c(n2)CCCCCC3)CC1` [Example 2b, 2-(4-ethyl-1-piperazinyl)-4-(2,4-difluorophenyl)-5,6,7,8,9,10-hexahydrocycloocta[b] pyridine], in the data set with mice, the “Number of dead animals / Number of test animals” value was 0/5. Besides, the response vs control in vivo at 2 mg/kg in data set [2] (setting [8]) is 364%; in data set [2] (setting [9]), 271%. Besides, in [1] (setting [6]), the inhibition in vivo at 0.2 mg/kg is 100%.

For `c1ccc(-c2cc(N3CCNCC3)nc3c2CCC3)cc1` [Example 87, 2-(1-Piperazinyl)-4-phenyl-6,7-dihydro-5H-1-pyrindine], the IC50 on adrenaline (α1) receptor was 94 nM; at serotonin (S2) receptor, 28 nM; on serotonin (S1) receptor, 820 nM; on dopamine (D2) receptor (setting [7]), 270 nM. Moreover, the response vs control in vivo at 10 mg/kg in data set [2] (setting [10]) was 136%; in data set [2] (setting [8]), 180%; in data set [2] (setting [9]), 194%; in data set [2] (setting [11]) it was 117%. In addition, the results for the “Improvement (step-down latency)” value in data set [3] (dose 0.5 mg/kg i.p.) and in [3] (dose 2.0 mg/kg i.p.) were 48% and 77%, respectively. In addition, the “Improvement (spontaneous alternation)” value in data set [4] (dose 0.5 mg/kg i.p.) is on record as 48.0%; in [4] (dose 2.0 mg/kg i.p.), 60.0%.

On to `CCN1CCN(c2cc(-c3ccc(F)cc3)c3c(n2)CCCCC3)CC1` [Example 25, 2-(4-Ethyl-1-piperazinyl)-4-(4-fluorophenyl)-6,7,8,9-tetrahydro-5H-cyclohepta[b]pyridine], for which the IC50 was found to be 120 nM at adrenaline (α1) receptor, 2.3 nM on serotonin (S2) receptor, 2600 nM on serotonin (S1) receptor and 77 nM at dopamine (D2) receptor (setting [7]). Moreover, in the data set on mice, the “Number of dead animals / Number of test animals” value was 0/5. The response vs control in vivo at 1 mg/kg in data set [2] (setting [10]) is 113%; in data set [2] (setting [8]), 272%; in data set [2] (setting [9]), 207%; in [2] (setting [11]), 106%. In addition, the inhibition in vivo at 3 mg/kg in data set [1] (Canis lupus familiaris, sc, dose 3.0 mg/kg, apomorphine 0.3 mg/kg s.c. 2 h after compound, read-out: Inhibitory ratio (apomorphine-induced vomiting)) was 100%.

In the case of `Cc1nc(N2CCN(c3ccccc3)CC2)cc(-c2ccc(F)cc2)c1-c1ccc(F)cc1` [Test Compound A, 4,5-Bis-(4-fluorophenyl)-6-methyl-2-(4-phenylpiperazino)pyridine, reference compound], the IC50 on adrenaline (α1) receptor, on serotonin (S2) receptor and at dopamine (D2) receptor (setting [7]) was over 10000 nM each time. The psychotropic activity result in [5] is reported as “did not show any psychotropic activity”. In addition, the “binding property to serotonin (S2) receptors (in words)” value on serotonin (S2) receptor was “no binding property”. Moreover, in data set [1] (setting [12]), the inhibition in vivo at 3 mg/kg is 11%. Further, the “effect on apomorphine-induced vomiting (in words)” value in data set [1] (dog, in vivo) is reported as “no inhibitory effect”. Also, the “binding property to dopamine (D2) receptors (in words)” value on dopamine (D2) receptor is recorded as “no binding property”.

As to `Fc1ccc(-c2cc(N3CCNCC3)nc3c2CCC3)cc1` [Example 88, 2-(1-Piperazinyl)-4-(4-fluorophenyl)-6,7-dihydro-5H-1-pyrindine], the IC50 on adrenaline (α1) receptor was 65 nM; on serotonin (S2) receptor it was 9.1 nM; on serotonin (S1) receptor, 670 nM; on dopamine (D2) receptor it was 70 nM. For the same compound, the response vs control in vivo at 10 mg/kg in data set [2] (setting [10]) turned out to be 120%; in data set [2] (setting [8]) it was 329%; in data set [2] (setting [9]), 209%; in data set [2] (setting [11]), 136%. Further, the inhibition in vivo at 3 mg/kg in data set [1] (setting [12]) was determined as 94%. Also, the “Improvement (step-down latency)” value in data set [3] (dose 2.0 mg/kg i.p.) was 60%. The “Improvement (spontaneous alternation)” value in data set [4] (dose 10.0 mg/kg i.p.) was 37.0%.

Regarding `Fc1ccc(-c2cc(N3CCNCC3)nc3c2CCCCC3)cc1` [Example 97, 2-(1-Piperazinyl)-4-(4-fluorophenyl)-6,7,8,9-tetrahydro-5H-cyclohepta[b]pyridine], the 50% inhibitory concentration (IC50) worked out at 890 nM on adrenaline (α1) receptor, 5.1 nM on serotonin (S2) receptor, 4100 nM on serotonin (S1) receptor and 260 nM at dopamine (D2) receptor (setting [7]). Further, the response vs control in vivo at 10 mg/kg turned out to be 128% in data set [2] (setting [10]), 232% in data set [2] (setting [8]), 176% in data set [2] (setting [9]) and 125% in [2] (setting [11]). The figures for the “Improvement (step-down latency)” value in data set [3] (dose 0.5 mg/kg i.p.) and in data set [3] (dose 2.0 mg/kg i.p.) were 38% and 36%, respectively. Also, in data set [4] (dose 10.0 mg/kg i.p.), the “Improvement (spontaneous alternation)” value turned out to be 32.0%.

Turning to `CCN1CCN(c2cc(-c3ccc(F)cc3)c3c(n2)CCC3)CC1` [Example 6, 2-(4-Ethyl-1-piperazinyl)-4-(4-fluorophenyl)-6,7-dihydro-5H-1-pyrindine], the IC50 was 6.9 nM at adrenaline (α1) receptor, 7.6 nM on serotonin (S2) receptor, 1500 nM at serotonin (S1) receptor and 19 nM at dopamine (D2) receptor (setting [7]). Moreover, in the data set with mice, the “Number of dead animals / Number of test animals” value is 0/5. The response vs control in vivo at 10 mg/kg in data set [2] (setting [10]) stood at 103%; in [2] (setting [8]), 321%; in [2] (setting [9]), 242%; in data set [2] (setting [11]) it was 115%. Besides, the inhibition in vivo at 1 mg/kg in data set [1] (Canis lupus familiaris, sc, dose 1.0 mg/kg, apomorphine 0.3 mg/kg s.c. 2 h after compound, read-out: Inhibitory ratio (apomorphine-induced vomiting)) was 89%.
